Data as given in patent publication EP0193257A1, “Control of micro-organisms in water-containing compositions” (NIPA LABORATORIES, LTD., priority 1985, dated 1986).

Tests used:
Format in all cases: cell-based
Serratia marcescens [1] = assay: Bactericidal effect in 27% sodium lauryl ether sulphate (challenge test)
Method: (§1) Sodium lauryl ether sulphate (SLES) is a commonly used anionic detergent, a major active component of shampoos, foam baths and general purpose cleaners. The bactericidal activity of some compounds covered by the general formula given above was evaluated at final levels of 0.10% (w/w) and 0. 15% (w/w) in a 27% active solution of SLES (confirmed as containing no other preservatives). The activity of these compounds was evaluated in comparison with 0.30% methyl-4-hydroxybenzoate and an unpreserved control sample.
(§2) The test organisms were three species of resistant Gram negative bacteria which had previously been isolated from contaminated detergent products. 20g portions of test solutions were inoculated with 0.1 ml pure culture of the test bacteria and the time taken to achieve a total lethal effect against each species was determined by sub-culture at regular intervals into sterile dilution media (containing preservative inact ivators) and then into sterile Nutrient Broth, which was incubated for 4 days at 32°C to determine the presence or absence of surviving bacteria.

Pseudomonas aeruginosa [2] = assay: as above
Method: as §1, §2

Klebsiella oxytoca [3] = assay: as above
Method: as §1, §2

Serratia marcescens [4] = assay: Challenge test in Polysorbate 80 solutions
Method: (§3) Many antimicrobial preservatives are inactivated by polyalkoxylated nonionic emulsifiers which are widely used in emulsification of cosmetic, pharmaceutical and industrial emulsions. […] Normal use levels of Polysorbate 80 are 1-5%.
(§4) 3,5-Dibromo-4-hydroxybenzaldehyde was evaluated at 0.05%, 0.10% and 0.15% in 5% and 10% Polysorbate 80 solutions by a challenge test of the type described in Example 2.

Pseudomonas aeruginosa [5] = assay: Challenge test in Polysorbate 80 solutions
Method: as §3, §4

Pseudomonas putida [6] = assay: Challenge test in Polysorbate 80 solutions
Method: as §3, §4

Escherichia coli [7] = assay: Challenge test in Polysorbate 80 solutions
Method: as §3, §4

Klebsiella oxytoca [8] = assay: Challenge test in Polysorbate 80 solutions
Method: as §3, §4

Serratia marcescens [9] = assay: Microbial challenge test in cosmetic cream
Method: (§5) Emulsions are susceptible to contamination and spoilage by-a wide range of micro-organisms. 3.5-Dibromo-4-hydroxybenzaldehyde (DBHB), as a non-limiting illustration of the invention, was evaluated in a typical cosmetic cream for microbiocidal efficacy. The cosmetic cream had the following formulation: […]
(§6) This cream was prepared by heating the oil and water phases to 70°C, mixing and stirring until cool. The DBHB was incorporated into the cream at final levels of 0.05%, 0.10% and 0.15% by dissolving into the emulsion components at the heating stage. A microbial challenge test was performed to determine the micro-biocidal activity of the test product. The following test organisms were inoculated in pure culture into portions of sterile cream samples and the time taken to achieve a total lethal effect was determined by regular sub-culture into recovery media (with preservative inactivators) which were incubated and observed for growth of survivors.

Pseudomonas aeruginosa [10] = assay: Microbial challenge test in cosmetic cream
Method: as §5, §6

Pseudomonas putida [11] = assay: Microbial challenge test in cosmetic cream
Method: as §5, §6

Escherichia coli [12] = assay: Microbial challenge test in cosmetic cream
Method: as §5, §6

Pencicillium expansum = assay: Microbial challenge test in cosmetic cream
Method: as §5, §6

Candida albicans = assay: Microbial challenge test in cosmetic cream
Method: as §5, §6

Staphylococcus aureus = assay: Microbial challenge test in cosmetic cream
Method: as §5, §6

[13] = test system: mixed culture of 7 strains of Gram negative bacteria; assay: Survivor plate count in shampoo formulation after challenge; conditions: shampoo with 0.05% citric acid alone (Control 1)
Method: A shampoo formulation was prepared to the following formula: […]
Various additions were made to portions of this shampoo in sterile bottles under aseptic conditions, as follows: • 1. 0.20% of 30% DCHB in propylene glycol (0.06% active DCHB) • 2. 0.20% of 30% DCHB in propylene glycol + 0.05% citric acid • 3. 0.05% citric acid (control 1) • 4. No addition (control 2)
Each of these systems was inoculated with a mixed culture of 7 strains of Gram negative bacteria, at an initial inocullum level of 9.0x10^7 colony forming units per g. At 30 mins, 1 hour, 2 hours, 6 hours, 24 hours and 7 days after inoculation the total number of survivors in each sample portion were determined by serial dilution and plate counting; with the following results: […]

[14] = 0.05%, Polysorbate 80 level 10%
[15] = 0.10%, Polysorbate 80 level 10%
[16] = 0.15%, Polysorbate 80 level 10%

In the case of O=Cc1ccc(O)c(Cl)c1 [3-Chloro-4-hydroxybenzaldehyde], the “Time to achieve total lethal effect against: S marcescens” value (Serratia marcescens [1]; 0.10% in 27% SLES) is reported as 1 days, the “Time to achieve total lethal effect against: S marcescens” value (Serratia marcescens [1]; 0.15% in 27% SLES) is reported as 0.25 days and the “Time to achieve total lethal effect against: P aeruginosa” value (Pseudomonas aeruginosa [2]; 0.10% in 27% SLES) is reported as 3 h. For the same molecule, the “Time to achieve total lethal effect against: P aeruginosa” value (Pseudomonas aeruginosa [2]; 0.15% in 27% SLES) was 1 h, the “Time to achieve total lethal effect against: K oxytoca” value (Klebsiella oxytoca [3]; 0.10% in 27% SLES) was 6 h and the “Time to achieve total lethal effect against: K oxytoca” value (Klebsiella oxytoca [3]; 0.15% in 27% SLES) was 1 h.

COC(=O)c1ccc(O)cc1 [Methyl-4-hydroxybenzoate, reference compound] was tested, and the “Time to achieve total lethal effect against: S marcescens” value (Serratia marcescens [1]; 0.3% in 27% SLES) was >28 days, the “Time to achieve total lethal effect against: P aeruginosa” value (Pseudomonas aeruginosa [2]; 0.3% in 27% SLES) was 336 h and the “Time to achieve total lethal effect against: K oxytoca” value (Klebsiella oxytoca [3]; 0.3% in 27% SLES) was 504 h.

For O=Cc1cc(Br)c(O)c(Br)c1 [DBHB, 3,5-Dibromo-4-hydroxybenzaldehyde], the “Time to achieve total lethal effect against: S marcescens” value (Serratia marcescens [1]; 0.10% in 27% SLES) was 0.12 days, the “Time to achieve total lethal effect against: S marcescens” value (Serratia marcescens [1]; 0.15% in 27% SLES) was <1 hour hours and the “Time to achieve total lethal effect against: P aeruginosa” value (Pseudomonas aeruginosa [2]; 0.10% in 27% SLES) was 1 hour hours. For the same molecule, the “Time to achieve total lethal effect against: P aeruginosa” value (Pseudomonas aeruginosa [2]; 0.15% in 27% SLES) was <1 h, the “Time to achieve total lethal effect against: K oxytoca” value (Klebsiella oxytoca [3]; 0.10% in 27% SLES) was 3 h and the “Time to achieve total lethal effect against: K oxytoca” value (Klebsiella oxytoca [3]; 0.15% in 27% SLES) was <1 h. The “Time taken to achieve total lethal effect against: S marcescens” value (“Time taken … S marcescens” for short) (Serratia marcescens [4]; 0.05%, Polysorbate 80 level 5%) was 24 h, the “Time taken … S marcescens” value (Serratia marcescens [4]; [14]) was 24 h and the “Time taken … S marcescens” value (Serratia marcescens [4]; 0.10%, Polysorbate 80 level 5%) was 1 h. The “Time taken … S marcescens” value (Serratia marcescens [4]; [15]) was 3 h, the “Time taken … S marcescens” value (Serratia marcescens [4]; 0.15%, Polysorbate 80 level 5%) was 1 h and the “Time taken … S marcescens” value (Serratia marcescens [4]; [16]) was 1 h. For the same molecule, the “Time taken to achieve total lethal effect against: P aeruginosa” value (“Time taken … P aeruginosa” below) (Pseudomonas aeruginosa [5]; 0.05%, Polysorbate 80 level 5%) was 3 h, the “Time taken … P aeruginosa” value (Pseudomonas aeruginosa [5]; [14]) was 24 h and the “Time taken … P aeruginosa” value (Pseudomonas aeruginosa [5]; 0.10%, Polysorbate 80 level 5%) was <1 h. For the same molecule, the “Time taken … P aeruginosa” value (Pseudomonas aeruginosa [5]; [15]) was 3 h, the “Time taken … P aeruginosa” value (Pseudomonas aeruginosa [5]; 0.15%, Polysorbate 80 level 5%) was <1 h and the “Time taken … P aeruginosa” value (Pseudomonas aeruginosa [5]; [16]) was <1 h. For the same molecule, the “Time taken to achieve total lethal effect against: P putida” value (shortened to “Time taken … P putida”) (Pseudomonas putida [6]; 0.05%, Polysorbate 80 level 5%) was 3 h, the “Time taken … P putida” value (Pseudomonas putida [6]; [14]) was 1 h and the “Time taken … P putida” value (Pseudomonas putida [6]; 0.10%, Polysorbate 80 level 5%) was <1 h. The “Time taken … P putida” value (Pseudomonas putida [6]; [15]) was 1 h, the “Time taken … P putida” value (Pseudomonas putida [6]; 0.15%, Polysorbate 80 level 5%) was <1 h and the “Time taken … P putida” value (Pseudomonas putida [6]; [16]) was <1 h. For the same molecule, the “Time taken to achieve total lethal effect against: E coli” value (“Time taken … E coli” for short) (Escherichia coli [7]; 0.05%, Polysorbate 80 level 5%) was 6 h, the “Time taken … E coli” value (Escherichia coli [7]; [14]) was 3 h and the “Time taken … E coli” value (Escherichia coli [7]; 0.10%, Polysorbate 80 level 5%) was <1 h. For the same molecule, the “Time taken … E coli” value (Escherichia coli [7]; [15]) was 1 h, the “Time taken … E coli” value (Escherichia coli [7]; 0.15%, Polysorbate 80 level 5%) was <1 h and the “Time taken … E coli” value (Escherichia coli [7]; [16]) was <1 h. The “Time taken to achieve total lethal effect against: K oxytoca” value (from here on “Time taken … K oxytoca”) (Klebsiella oxytoca [8]; 0.05%, Polysorbate 80 level 5%) was 6 h, the “Time taken … K oxytoca” value (Klebsiella oxytoca [8]; [14]) was 3 h and the “Time taken … K oxytoca” value (Klebsiella oxytoca [8]; 0.10%, Polysorbate 80 level 5%) was 1 h. The “Time taken … K oxytoca” value (Klebsiella oxytoca [8]; [15]) was 1 h, the “Time taken … K oxytoca” value (Klebsiella oxytoca [8]; 0.15%, Polysorbate 80 level 5%) was <1 h and the “Time taken … K oxytoca” value (Klebsiella oxytoca [8]; [16]) was <1 h. The “Time taken … S marcescens” value (Serratia marcescens [9]; 0.05% in cosmetic cream) was 3 h, the “Time taken … S marcescens” value (Serratia marcescens [9]; 0.10% in cosmetic cream) was 3 h and the “Time taken … S marcescens” value (Serratia marcescens [9]; 0.15% in cosmetic cream) was 1 h. For the same molecule, the “Time taken … P aeruginosa” value (Pseudomonas aeruginosa [10]; 0.05% in cosmetic cream) was 3 h, the “Time taken … P aeruginosa” value (Pseudomonas aeruginosa [10]; 0.10% in cosmetic cream) was 3 h and the “Time taken … P aeruginosa” value (Pseudomonas aeruginosa [10]; 0.15% in cosmetic cream) was <1 h. The “Time taken … P putida” value (Pseudomonas putida [11]; 0.05% in cosmetic cream) was 3 h, the “Time taken … P putida” value (Pseudomonas putida [11]; 0.10% in cosmetic cream) was <1 h and the “Time taken … P putida” value (Pseudomonas putida [11]; 0.15% in cosmetic cream) was <1 h. The “Time taken … E coli” value (Escherichia coli [12]; 0.05% in cosmetic cream) was 3 h, the “Time taken … E coli” value (Escherichia coli [12]; 0.10% in cosmetic cream) was 3 h and the “Time taken … E coli” value (Escherichia coli [12]; 0.15% in cosmetic cream) was <1 h. For the same molecule, the “Time taken to achieve total lethal effect against: Pen expansum” value (from here on “Time taken … Pen expansum”) (Pencicillium expansum; 0.05% in cosmetic cream) was 4 days, the “Time taken … Pen expansum” value (Pencicillium expansum; 0.10% in cosmetic cream) was 2 days and the “Time taken … Pen expansum” value (Pencicillium expansum; 0.15% in cosmetic cream) was 1 days. The “Time taken to achieve total lethal effect against: C albicans” value (from here on “Time taken … C albicans”) (Candida albicans; 0.05% in cosmetic cream) was 3 h, the “Time taken … C albicans” value (Candida albicans; 0.10% in cosmetic cream) was <1 h and the “Time taken … C albicans” value (Candida albicans; 0.15% in cosmetic cream) was <1 h. For the same molecule, the “Time taken to achieve total lethal effect against: S aureus” value (“Time taken … S aureus” below) (Staphylococcus aureus; 0.05% in cosmetic cream) was 1 h, the “Time taken … S aureus” value (Staphylococcus aureus; 0.10% in cosmetic cream) was <1 h and the “Time taken … S aureus” value (Staphylococcus aureus; 0.15% in cosmetic cream) was <1 h.

With O=C(O)CC(O)(CC(=O)O)C(=O)O [citric acid, reference compound] the “Mixed culture - colony forming units/g after: 30 mins” value [13] was 9.0x10^7 colony forming units/g, the “Mixed culture - colony forming units/g after: 1 hour” value [13] was 3.5x10^7 colony forming units/g and the “Mixed culture - colony forming units/g after: 2 hours” value [13] was 6.5x10^7 colony forming units/g. The “Mixed culture - colony forming units/g after: 6 hours” value [13] was >1x10^8 colony forming units/g, the “Mixed culture - colony forming units/g after: 24 hours” value [13] was >1x10^8 colony forming units/g and the “Mixed culture - colony forming units/g after: 7 days” value [13] was >1x10^8 colony forming units/g.

In the case of Cc1cc(C=O)cc(C)c1O [3,5-Dimethyl-4-hydroxybenzaldehyde, 3,5,-Dimethyl-4-hydroxybenzaldehyde], the “Time to achieve total lethal effect against: S marcescens” value (Serratia marcescens [1]; 0.10% in 27% SLES) is reported as 1 days, the “Time to achieve total lethal effect against: S marcescens” value (Serratia marcescens [1]; 0.15% in 27% SLES) is reported as 0.12 days and the “Time to achieve total lethal effect against: P aeruginosa” value (Pseudomonas aeruginosa [2]; 0.10% in 27% SLES) is reported as 1 hour hours. The “Time to achieve total lethal effect against: P aeruginosa” value (Pseudomonas aeruginosa [2]; 0.15% in 27% SLES) was <1 h, the “Time to achieve total lethal effect against: K oxytoca” value (Klebsiella oxytoca [3]; 0.10% in 27% SLES) was 3 h and the “Time to achieve total lethal effect against: K oxytoca” value (Klebsiella oxytoca [3]; 0.15% in 27% SLES) was <1 h.
